Laboratory results published in patent US10544143B2, “4-azaindole compounds” (BRISTOL-MYERS SQUIBB COMPANY, priority 2017, dated 2020).
Where two headings read alike, the source gives them in different places.

Key:
[1] = molecular target: human TLR7 (Homo sapiens (Human), UniProt Q9NYK1); test: TLR7 inhibition reporter assay (HEK-Blue SEAP); assay type: cell-based
[2] = molecular target: human TLR9 (Homo sapiens (Human), UniProt Q9NR96); test: TLR9 inhibition reporter assay (HEK-Blue SEAP); settings: read-out: TLR9 IC50;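 note: SEAP driven by an IFN-β minimal promoter with NF-κB and AP-1 sites, read after 22 h, compounds dosed 0.05 nM–50 µM, inhibition scaled between agonist plus DMSO and reference-inhibitor wells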
[3] = molecular target: human TLR8 (Homo sapiens (Human), UniProt Q9NR97); test: TLR8 inhibition reporter assay (HEK-Blue SEAP); settings: read-out: TLR8 IC50;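 note: SEAP driven by IFN-β minimal promoter carrying NF-κB and AP-1 sites, compounds dosed 0.05 nM to 50 µM for 22 h, inhibition scaled between agonist-plus-DMSO and reference-inhibitor wells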
[4] = HEK-Blue cells overexpressing human TLR7, gardiquimod 7.5 μM stimulation, SEAP reporter
[5] = HEK-Blue cells overexpressing human TLR9, ODN2006 5 nM stimulation, SEAP reporter
[6] = HEK-Blue cells overexpressing human TLR8, R848 15.9 μM stimulation, SEAP reporter
[7] = HEK-Blue human TLR7 cells, gardiquimod 7.5 μM
[8] = HEK-Blue human TLR9 cells, ODN2006 5 nM
[9] = HEK-Blue human TLR8 cells, R848 15.9 μM
[10] = HEK-Blue cells overexpressing human TLR7, SEAP reporter, gardiquimod 7.5 μM
[11] = HEK-Blue cells overexpressing human TLR9, SEAP reporter, ODN2006 5 nM
[12] = HEK-Blue cells overexpressing human TLR8, SEAP reporter, R848 15.9 μM

Chain of human TLR9 (Q9NR96 26-1032): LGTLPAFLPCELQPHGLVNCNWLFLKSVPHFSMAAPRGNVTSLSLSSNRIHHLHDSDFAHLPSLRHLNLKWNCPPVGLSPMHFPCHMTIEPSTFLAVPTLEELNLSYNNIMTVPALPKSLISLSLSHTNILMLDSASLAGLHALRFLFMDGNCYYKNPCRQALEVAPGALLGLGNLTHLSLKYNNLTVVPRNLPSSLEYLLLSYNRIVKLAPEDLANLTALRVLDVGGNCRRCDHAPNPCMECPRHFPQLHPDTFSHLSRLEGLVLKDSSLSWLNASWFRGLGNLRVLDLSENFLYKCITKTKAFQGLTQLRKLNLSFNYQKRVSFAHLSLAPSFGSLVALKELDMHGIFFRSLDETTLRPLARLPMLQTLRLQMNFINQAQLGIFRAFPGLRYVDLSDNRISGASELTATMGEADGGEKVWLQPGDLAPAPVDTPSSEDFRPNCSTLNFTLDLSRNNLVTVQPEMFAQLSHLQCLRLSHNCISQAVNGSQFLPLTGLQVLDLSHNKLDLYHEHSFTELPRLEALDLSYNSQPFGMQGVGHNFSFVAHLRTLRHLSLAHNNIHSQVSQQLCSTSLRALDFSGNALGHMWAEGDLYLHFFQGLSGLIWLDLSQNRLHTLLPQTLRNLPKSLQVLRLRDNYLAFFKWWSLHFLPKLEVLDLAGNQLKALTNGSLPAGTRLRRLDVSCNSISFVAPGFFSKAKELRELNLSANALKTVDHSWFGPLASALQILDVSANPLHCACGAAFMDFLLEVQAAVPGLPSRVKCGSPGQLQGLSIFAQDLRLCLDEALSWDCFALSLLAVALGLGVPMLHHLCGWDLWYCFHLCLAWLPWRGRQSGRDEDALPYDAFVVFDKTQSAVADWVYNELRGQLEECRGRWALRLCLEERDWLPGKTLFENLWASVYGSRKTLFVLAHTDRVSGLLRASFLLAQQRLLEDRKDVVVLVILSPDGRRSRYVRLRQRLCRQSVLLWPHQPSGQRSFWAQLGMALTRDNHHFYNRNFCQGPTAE
Chain of human TLR8 (Q9NR97 27-1041): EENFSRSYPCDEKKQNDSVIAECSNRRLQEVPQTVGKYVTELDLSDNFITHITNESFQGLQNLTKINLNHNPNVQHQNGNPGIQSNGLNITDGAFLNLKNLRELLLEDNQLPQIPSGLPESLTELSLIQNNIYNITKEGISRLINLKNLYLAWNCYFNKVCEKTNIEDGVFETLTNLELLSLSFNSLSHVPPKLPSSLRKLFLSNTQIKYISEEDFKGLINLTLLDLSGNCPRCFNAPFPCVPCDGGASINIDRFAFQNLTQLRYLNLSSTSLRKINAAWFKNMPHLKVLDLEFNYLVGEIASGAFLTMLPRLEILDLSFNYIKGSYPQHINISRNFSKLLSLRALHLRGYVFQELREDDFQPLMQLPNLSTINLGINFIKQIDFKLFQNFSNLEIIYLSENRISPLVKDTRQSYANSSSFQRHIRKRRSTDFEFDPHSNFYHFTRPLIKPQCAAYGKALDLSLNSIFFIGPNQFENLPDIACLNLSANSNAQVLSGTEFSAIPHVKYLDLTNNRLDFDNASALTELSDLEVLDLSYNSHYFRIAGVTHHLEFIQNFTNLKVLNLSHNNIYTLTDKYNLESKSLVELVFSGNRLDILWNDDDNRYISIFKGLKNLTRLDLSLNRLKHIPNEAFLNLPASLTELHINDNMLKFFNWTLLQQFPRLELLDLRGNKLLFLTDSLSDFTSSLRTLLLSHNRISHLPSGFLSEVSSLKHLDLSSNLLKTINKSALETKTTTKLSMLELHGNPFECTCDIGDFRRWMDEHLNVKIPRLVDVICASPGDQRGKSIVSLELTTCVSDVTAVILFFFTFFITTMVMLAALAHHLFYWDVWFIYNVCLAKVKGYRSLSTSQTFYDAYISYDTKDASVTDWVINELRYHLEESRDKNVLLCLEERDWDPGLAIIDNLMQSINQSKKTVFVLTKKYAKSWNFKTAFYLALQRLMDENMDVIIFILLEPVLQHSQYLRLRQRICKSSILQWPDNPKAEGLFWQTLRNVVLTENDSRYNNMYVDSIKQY
Chain of human TLR7 (Q9NYK1 27-1049): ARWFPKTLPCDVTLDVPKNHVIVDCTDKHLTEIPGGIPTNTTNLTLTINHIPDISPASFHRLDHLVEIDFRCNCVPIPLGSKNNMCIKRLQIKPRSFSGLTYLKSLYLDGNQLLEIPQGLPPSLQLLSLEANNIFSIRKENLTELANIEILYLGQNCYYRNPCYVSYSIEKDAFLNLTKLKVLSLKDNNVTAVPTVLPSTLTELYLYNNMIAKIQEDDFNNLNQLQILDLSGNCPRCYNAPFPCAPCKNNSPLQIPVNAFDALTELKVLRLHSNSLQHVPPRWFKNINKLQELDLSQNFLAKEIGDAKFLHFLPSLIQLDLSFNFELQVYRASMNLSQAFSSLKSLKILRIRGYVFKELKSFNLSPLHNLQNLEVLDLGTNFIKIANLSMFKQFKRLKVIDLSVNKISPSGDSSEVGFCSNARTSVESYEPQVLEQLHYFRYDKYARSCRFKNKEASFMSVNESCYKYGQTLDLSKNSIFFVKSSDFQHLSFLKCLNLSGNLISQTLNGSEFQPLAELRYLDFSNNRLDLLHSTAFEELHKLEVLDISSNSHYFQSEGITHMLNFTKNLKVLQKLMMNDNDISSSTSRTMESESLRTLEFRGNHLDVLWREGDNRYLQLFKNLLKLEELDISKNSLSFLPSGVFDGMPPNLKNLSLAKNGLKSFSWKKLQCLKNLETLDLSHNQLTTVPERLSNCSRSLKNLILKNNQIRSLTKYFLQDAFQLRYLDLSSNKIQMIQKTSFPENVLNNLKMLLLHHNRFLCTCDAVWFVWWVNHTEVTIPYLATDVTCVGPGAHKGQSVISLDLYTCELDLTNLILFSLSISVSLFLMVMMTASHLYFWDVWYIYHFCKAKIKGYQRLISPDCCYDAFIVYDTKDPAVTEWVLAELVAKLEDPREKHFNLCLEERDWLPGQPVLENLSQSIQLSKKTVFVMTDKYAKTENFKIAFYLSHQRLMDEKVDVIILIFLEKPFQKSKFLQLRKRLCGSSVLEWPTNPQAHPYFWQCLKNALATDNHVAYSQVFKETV

CC(C)c1c(-c2cc(CO)c3ncnn3c2)[nH]c2ccc(C3CCC(NC4COC4)CC3)nc12 (stereo not drawn) [Example 235]
IC50 [1, 4]: 0.001 µM
IC50 [2, 5]: 0.929 µM
IC50 [3, 6]: 0.002 µM

Cc1c(-c2[nH]c3ccc(N4C[C@@H](C)N(C(=O)CN5CC6(COC6)C5)C[C@@H]4C)nc3c2C(C)C)cn2ncnc2c1C [Example 896]
IC50 [1, 7]: 0.00069 µM
IC50 [2, 8]: 8.44 µM
IC50 [3, 9]: 0.00037 µM

CC(C)c1c(-c2cn(C)c3ncncc23)[nH]c2ccc(N3CCN(C(C)C)CC3)nc12 [Example 126]
IC50 [1, 4]: 0.0059 µM
IC50 [2, 5]: 6.12 µM
IC50 [3, 6]: 0.0015 µM

COc1cc(-c2[nH]c3ccc(C4CN(C(C)C)C4)nc3c2C(C)C)cn2ncnc12 [Example 655]
IC50 [1, 10]: 0.0014 µM
IC50 [2, 11]: 2.07 µM
IC50 [3, 12]: 0.011 µM

Cc1c(-c2[nH]c3ccc(C4CCN(C5COC5)CC4)nc3c2C(C)C)cn(C)c(=O)c1C [Example 542]
IC50 [1, 10]: 0.024 µM
IC50 [2, 11]: 9.23 µM
IC50 [3, 12]: 0.017 µM

COCCN(C1CCC(c2ccc3[nH]c(-c4cn5ncnc5c(C)c4C)c(C(C)C)c3n2)CC1)C1(CO)COC1 (stereo not drawn) [Example 500]
IC50 [1, 10]: 0.019 µM
IC50 [2, 11]: > 50 µM
IC50 [3, 12]: 0.039 µM

Cc1c(-c2[nH]c3ccc(N4CCNCC4)nc3c2C(C)C)cn2ncnc2c1C [Example 2, 6-(3-isopropyl-5-(piperazin-1-yl)-1H-pyrrolo[3,2-b]pyridin-2-yl)-7,8-dimethyl-[1,2,4]triazolo[1,5-a]pyridine]
IC50 [1, 4]: 0.0017 µM
IC50 [2, 5]: 7.33 µM
IC50 [3, 6]: 0.00027 µM

COc1cc(-c2[nH]c3ccc(N4CCN(CCC(N)=O)CC4)nc3c2C(C)C)cn2ncnc12 [Example 137]
IC50 [1, 4]: 0.0056 µM
IC50 [2, 5]: 8.45 µM
IC50 [3, 6]: 0.0013 µM

CCN(C)CC(=O)N1[C@H](C)CN(c2ccc3[nH]c(-c4cn5ncnc5c(C)c4C)c(C(C)C)c3n2)C[C@H]1C [Example 927]
IC50 [1, 7]: 0.0029 µM
IC50 [2, 8]: 4.36 µM
IC50 [3, 9]: 0.0037 µM

Cc1c(-c2[nH]c3ccc(N4C[C@@H](C)N(C(=O)CCN5CCCC5)C[C@@H]4C)nc3c2C(C)C)cn2ncnc2c1C [Example 739, 1-((2R,5S)-4-(2-(7,8-dimethyl-[1,2,4]triazolo[1,5-a]pyridin-6-yl)-3-isopropyl-1H-pyrrolo[3,2-b]pyridin-5-yl)-2,5-dimethylpiperazin-1-yl)-3-(pyrrolidin-1-yl)propan-1-one]
IC50 [1, 10]: 0.00085 µM
IC50 [2, 11]: 5.32 µM
IC50 [3, 12]: 0.0016 µM

Cc1c(-c2[nH]c3ccc(N4CC5(CN(CCCS(C)(=O)=O)C5)C4)nc3c2C(C)C)cn2ncnc2c1C [Example 1007]
IC50 [1, 7]: 0.0032 µM
IC50 [2, 8]: 2.34 µM
IC50 [3, 9]: 0.004 µM

Cc1c(-c2[nH]c3ccc(N4CCNC(C)C4C)nc3c2C(C)C)cn2ncnc2c1C (stereo not drawn) [Example 977]
IC50 [1, 7]: 0.0014 µM
IC50 [2, 8]: 8.6 µM
IC50 [3, 9]: 0.0021 µM

Cc1c(-c2[nH]c3ccc(N4CCC(N(C)C5COC5)CC4)nc3c2C(C)C)cn2ncnc2c1C [Example 65]
IC50 [1, 4]: 0.0019 µM
IC50 [2, 5]: 25.1 µM
IC50 [3, 6]: 0.0013 µM

CNC(=O)C(C)(C)NC1CCC(c2ccc3[nH]c(-c4cn5ncnc5c(C)c4C)c(C(C)C)c3n2)CC1 (stereo not drawn) [Example 487]
IC50 [1, 10]: 0.00075 µM
IC50 [2, 11]: 2.29 µM
IC50 [3, 12]: 0.00049 µM

COc1cc(-c2[nH]c3ccc(C4CCC(N(C)CCS(C)(=O)=O)CC4)nc3c2C(C)C)cn2ncnc12 (stereo not drawn) [Example 242]
IC50 [1, 4]: 0.0015 µM
IC50 [2, 5]: 2.41 µM
IC50 [3, 6]: 0.015 µM

CC(C)c1c(-c2cc(CO)c3ncnn3c2)[nH]c2ccc(N3CCC(NCC(=O)N(C)C)CC3)nc12 [Example 84]
IC50 [1, 4]: 2.2 µM
IC50 [2, 5]: > 50 µM
IC50 [3, 6]: > 3.12 µM

Cc1c(-c2[nH]c3ccc(C4CC(N(C)CC5(C)COC5)C4)nc3c2C(C)C)cn2ncnc2c1C (stereo not drawn) [Example 626]
IC50 [1, 10]: 0.029 µM
IC50 [2, 11]: 13.5 µM
IC50 [3, 12]: 0.008 µM

COc1cc(-c2[nH]c3cc(C)c(C4CCC(NCC(F)F)CC4)nc3c2C(C)C)cn2ncnc12 (stereo not drawn) [Example 324]
IC50 [1, 4]: 0.0066 µM
IC50 [2, 5]: 20.5 µM
IC50 [3, 6]: 0.24 µM

Cc1c(-c2[nH]c3ccc(C4CC(N)C4)nc3c2C(C)C)cn2ncnc2c1C (stereo not drawn) [Example 617]
IC50 [1, 10]: 2.22 µM
IC50 [2, 11]: 20.5 µM
IC50 [3, 12]: 1.32 µM

Cc1c(-c2[nH]c3ccc(C4CCC(N(C)CCC#N)CC4)nc3c2C(C)C)cn2ncnc2c1C (stereo not drawn) [Example 361]
IC50 [1, 4]: 0.00079 µM
IC50 [2, 5]: 1.25 µM
IC50 [3, 6]: 0.001 µM

Cc1c(-c2[nH]c3ccc(C4CCC5(CC4)CN(C(C)C)C5)nc3c2C(C)C)cn2ncnc2c1C [Example 493]
IC50 [1, 10]: 1.76 µM
IC50 [2, 11]: > 50 µM
IC50 [3, 12]: 3.79 µM

Cc1c(-c2[nH]c3ccc(N4CC5(CN(CC(C)C)C5)C4)nc3c2C(C)C)cn2ncnc2c1C [Example 1009]
IC50 [1, 7]: 0.0045 µM
IC50 [2, 8]: 2.66 µM
IC50 [3, 9]: 0.0077 µM
